# Target: PDE1B (Homo sapiens, UniProt Q01064)
# Assay: In vitro HTRF PDE1 inhibition assay (PDE1B)
# Type: biochemical
# Conditions: in vitro PDE1B HTRF Assay; read-out: IC50
# Chain of PDE1B (Q01064 whole entry): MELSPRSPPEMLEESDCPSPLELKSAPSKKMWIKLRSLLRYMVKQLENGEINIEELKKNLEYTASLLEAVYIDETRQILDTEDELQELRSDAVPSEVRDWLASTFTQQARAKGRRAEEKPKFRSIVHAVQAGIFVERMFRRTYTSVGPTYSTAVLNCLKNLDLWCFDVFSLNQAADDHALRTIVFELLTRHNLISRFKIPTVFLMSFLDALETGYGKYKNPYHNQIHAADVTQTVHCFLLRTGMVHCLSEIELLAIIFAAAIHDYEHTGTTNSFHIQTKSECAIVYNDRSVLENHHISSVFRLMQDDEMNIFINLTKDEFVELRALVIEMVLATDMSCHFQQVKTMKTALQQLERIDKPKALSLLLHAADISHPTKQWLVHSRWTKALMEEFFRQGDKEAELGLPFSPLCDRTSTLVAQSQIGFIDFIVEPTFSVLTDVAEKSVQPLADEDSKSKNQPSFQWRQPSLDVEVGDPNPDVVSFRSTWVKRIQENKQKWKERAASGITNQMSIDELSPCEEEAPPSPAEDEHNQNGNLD
row,SMILES,IC50 [nM]
1,"CCn1c(COC2CCC(F)(F)CC2)nn2c(C3CCOCC3)ncc2c1=O [Example 260, 2-{[(4,4-Difluorocyclohexyl)oxy]methyl}-3-ethyl-7-(tetrahydro-2H-pyran-4-yl)imidazo[5,1-f][1,2,4]triazin-4(3H)-one]",< 1000
2,"COc1ccc(CNc2nn3c(C(C)C)ncc3c(=O)n2C)nc1 [Example 135, 2-{[(5-Methoxypyridin-2-yl)methyl]amino}-3-methyl-7-(propan-2-yl)imidazo[5,1-f][1,2,4]triazin-4(3H)-one]",< 1000
3,CC(C)c1ncc2c(=O)n(C)c(OCC(F)(F)F)nn12 [Example 9],< 1000
4,CCOc1nn2c(C3CCOCC3)ncc2c(=O)n1CC1CCC(F)(F)CC1 [Example 102],< 1000
5,CCc1ccc([C@H]2CCCN2c2nn3c(C(C)C)ncc3c(=O)n2C)cc1 [Example 168],< 1000
6,"Cc1nn2c(C3CCOCC3)ncc2c(=O)n1CC1CCC(F)(F)CC1 [Example 237, 3-[(4,4-Difluorocyclohexyl)methyl]-2-methyl-7-(tetrahydro-2H-pyran-4-yl)imidazo[5,1-f][1,2,4]triazin-4(3H)-one]",< 1000
7,Cn1c(N2CCOCC2)nn2c(C3CCOCC3)ncc2c1=O [Example 185],< 1000
8,"Cc1ccc([C@H]2CCCN2c2nn3c(C(C)C)ncc3c(=O)n2C)nc1 [Example 218, 3-Methyl-2-[(2R)-2-(5-methylpyridin-2-yl)pyrrolidin-1-yl]-7-(propan-2-yl)imidazo[5,1-f][1,2,4]triazin-4(3H)-one]",< 1000
9,CCn1c(OCC2CCCCC2)nn2c(C3CCOCC3)ncc2c1=O [Example 89],< 1000
10,CCCn1c(OCC2CCC(F)(F)CC2)nn2c(C3CCOCC3)ncc2c1=O [Example 94],< 1000
11,CC(C)COc1nn2c(C(C)C)ncc2c(=O)n1C [Example 11],< 1000
12,CC(C)c1ncc2c(=O)n(C)c(NCc3cccnc3)nn12 [Example 152],< 1000
13,CN(C)C(=O)CN1CCCN(c2nn3c(C4CCOCC4)ncc3c(=O)n2C)CC1 [Example 197],< 1000
14,"O=c1[nH]c(N2CCC[C@@H]2c2ccccc2)nn2c(C3CCOCC3)ncc12 [Example 124, 2-[(2R)-2-phenylpyrrolidin-1-yl]-7-(tetrahydro-2H-pyran-4-yl)imidazo[5,1-f][1,2,4]triazin-4(3H)-one]",< 1000
15,Cn1c(OCCCc2ccc(F)cn2)nn2c(C3CCOCC3)ncc2c1=O [Example 41],< 1000
16,Cn1c(OCC2(C(F)(F)F)CCCCC2)nn2c(C3CCOCC3)ncc2c1=O [Example 297],< 1000
17,CCn1c(OCC(C)C)nn2c(C3CCOCC3)ncc2c1=O [Example 55],< 1000
18,"Cn1c(O[C@H]2CC[C@H](C(F)(F)F)CC2)nn2c(C3CCOCC3)ncc2c1=O [Example 305, 3-methyl-7-(tetrahydro-2H-pyran-4-yl)-2-{[trans-4-(trifluoromethyl)cyclohexyl]oxy}-imidazo[5,1-f][1,2,4]triazin-4(3H)-one]",< 1000
19,O=c1c2cnc(C3CCOCC3)n2nc(N2CCCC2)n1CC1CCCC1 [Example 212],10000 to 100000
20,CCn1c(OCc2ccc(F)cc2)nn2c(C3CCOCC3)ncc2c1=O [Example 56],< 1000
21,CCO[C@H]1CC[C@@H](COc2nn3c(C4CCOCC4)ncc3c(=O)n2CC)CC1 [Example 250],< 1000
22,CCCn1c(N2CCCC2)nn2c(C3CCOCC3)ncc2c1=O [Example 199],< 1000
23,CC(C)c1ncc2c(=O)n(C)c(NC3CCCc4cc(C#N)ccc43)nn12 (stereo not shown) [Example 148],< 1000
24,Cc1ccc(CNc2nn3c(C4CCC4)ncc3c(=O)n2C)nc1 [Example 204],< 1000
25,"Cc1cccc(CNc2nn3c(C(C)C)ncc3c(=O)n2C)n1 [Example 137, 3-Methyl-2-{[(6-methylpyridin-2-yl)methyl]amino}-7-(propan-2-yl)imidazo[5,1-f][1,2,4]triazin-4(3H)-one]",< 1000

row,SMILES,IC50 [nM]
1,O=c1c2cnc(C3CCOCC3)n2nc(OCC2CCC(F)(F)CC2)n1CC1CC1 [Example 100],< 1000
2,CCn1c(OCc2ccc(-c3ccc(C#N)cc3)cc2)nn2c(C3CCOCC3)ncc2c1=O [Example 85],< 1000
3,CCCn1c(OC)nn2c(C3CCOCC3)ncc2c1=O [Example 270],< 1000
4,CC(C)c1ncc2c(=O)n(C)c(NCc3ccccn3)nn12 [Example 150],< 1000
5,O=c1c2cnc(C3CCOCC3)n2nc(N2CCCC2)n1CC1CCOCC1 [Example 214],10000 to 100000
6,CCn1c(OCC2(C(F)(F)F)CCCC2)nn2c(C3CCOCC3)ncc2c1=O [Example 296],< 1000
7,CC(C)c1ncc2c(=O)n(C)c(NCc3ccc(F)cn3)nn12 [Example 154],1000 to 10000
8,"Cc1ccc(COc2nn3c(C(C)C)ncc3c(=O)n2C)nc1 [Example 2, 3-Methyl-2-[(5-methylpyridin-2-yl)methoxy]-7-(propan-2-yl)imidazo[5,1-f][1,2,4]triazin-4(3H)-one]",< 1000
9,COc1nn2c(C(C)C)ncc2c(=O)n1Cc1ccccn1 [Example 262],< 1000
10,O=c1c2cnc(C3CCOCC3)n2nc(N2CCCC2)n1CCC(F)(F)F [Example 209],10000 to 100000
11,CC(Oc1nn2c(C3CCOCC3)ncc2c(=O)n1C)c1ccc(-c2ccccn2)cc1 (stereo not shown) [Example 52],< 1000
12,CC(C)c1ncc2c(=O)n(C)c(NC3CCCc4cc(Cl)ccc43)nn12 (stereo not shown) [Example 147],< 1000
13,CC(C)c1ncc2c(=O)n(C)c(COc3ccc(F)cc3)nn12 [Example 226],< 1000
14,CC(C)n1c(N2CCCC2)nn2c(C3CCOCC3)ncc2c1=O [Example 207],10000 to 100000
15,CC(C)c1ncc2c(=O)n(C)c(NCc3ccc(C#N)cn3)nn12 [Example 158],< 1000
16,"CC(C)c1ncc2c(=O)n(C)c(COc3ccc(Cl)cc3)nn12 [Example 223, 2-[(4-Chlorophenoxy)methyl]-3-methyl-7-(propan-2-yl)imidazo[5,1-f][1,2,4]triazin-4(3H)-one]",1000 to 10000
17,CC(C)c1ncc2c(=O)n(C)c(N3CCC[C@@H]3c3ccc(C#N)cc3)nn12 [Example 167],1000 to 10000
18,Cn1c(OCc2cccc(F)c2)nn2c(C3CCOCC3)ncc2c1=O [Example 40],< 1000
19,O=c1c2cnc(C3CCOCC3)n2nc(N2CCCC2)n1CC1CCCCC1 [Example 213],1000 to 10000
20,Cn1c(OCc2ccc(OC(F)(F)F)cc2)nn2c(C3CCOCC3)ncc2c1=O [Example 293],< 1000
21,COCCn1c(N2CCCC2)nn2c(C3CCOCC3)ncc2c1=O [Example 210],10000 to 100000
22,"CC(C)c1ncc2c(=O)n(C)c(OCCc3ccncc3)nn12 [Example 3, 3-Methyl-7-(propan-2-yl)-2-[2-(pyridin-4-yl)ethoxy]imidazo[5,1-f][1,2,4]triazin-4(3H)-one]",< 1000
23,CC(C)c1ncc2c(=O)n(C)c(CN3Cc4ccccc4C3=O)nn12 [Example 232],1000 to 10000
24,CCn1c(OCCc2ccncc2)nn2c(C3CCOCC3)ncc2c1=O [Example 60],< 1000
25,Cc1ccc(OCc2nn3c(C(C)C)ncc3c(=O)n2C)cc1 [Example 225],1000 to 10000

row,SMILES,IC50 [nM]
1,"Cn1c(/C=C/c2ccc(F)cc2)nn2c(C3CCOCC3)ncc2c1=O [Example 240, 2-[(E)-2-(4-Fluorophenyl)ethenyl]-3-methyl-7-(tetrahydro-2H-pyran-4-yl)imidazo[5,1-f][1,2,4]triazin-4(3H)-one]",< 1000
2,CC(C)c1ncc2c(=O)[nH]c(N3CCCC3c3ccccc3Cl)nn12 (stereo not shown) [Example 132],< 1000
3,"CCn1c(OCC2CCC(F)(F)CC2)nn2c(N3CCCC3)ncc2c1=O [Example 332, 2-[(4,4-Difluorocyclohexyl)methoxy]-3-ethyl-7-(pyrrolidin-1-yl)imidazo[5,1-f][1,2,4]triazin-4(3H)-one]",10000 to 100000
4,Cn1c(OCCCc2ccccn2)nn2c(C3CCOCC3)ncc2c1=O [Example 31],< 1000
5,Cn1c(OCCCc2cccnc2)nn2c(C3CCOCC3)ncc2c1=O [Example 46],< 1000
6,"Cc1ccc([C@@H]2CCCN2c2nn3c(C(C)C)ncc3c(=O)n2C)cn1 [Example 217, 3-Methyl-2-[(2S)-2-(6-methylpyridin-3-yl)pyrrolidin-1-yl]-7-(propan-2-yl)imidazo[5,1-f][1,2,4]triazin-4(3H)-one]",1000 to 10000
7,Cc1cccnc1CNc1nn2c(C(C)C)ncc2c(=O)n1C [Example 157],< 1000
8,CCn1c(OCc2ccc(-c3ccc(C)cc3)cc2)nn2c(C3CCOCC3)ncc2c1=O [Example 81],< 1000
9,CN(C)C(=O)C1CCN(c2nn3c(C4CCOCC4)ncc3c(=O)n2C)CC1 [Example 194],1000 to 10000
10,Cn1c(CN2CCCc3cc(Cl)ccc32)nn2c(C3CCCC3)ncc2c1=O [Example 233],< 1000
11,Cn1c(N2CCCCC2)nn2c(C3CCOCC3)ncc2c1=O [Example 184],< 1000
12,COc1nn2c(C3CCOCC3)ncc2c(=O)n1Cc1ccc(F)cc1 [Example 108],< 1000
13,COc1nn2c(C3CCOCC3)ncc2c(=O)n1CC1CCCC1 [Example 274],< 1000
14,CCn1c(OCc2cc(F)ccc2F)nn2c(C3CCOCC3)ncc2c1=O [Example 57],< 1000
15,CCn1c(NCc2ccc(C#N)cn2)nn2c(C(C)C)ncc2c1=O [Example 175],< 1000
16,CO[C@@H]1CCN(c2nn3c(C4CCOCC4)ncc3c(=O)n2C)C1 [Example 188],< 1000
17,CO[C@H]1CCN(c2nn3c(C4CCOCC4)ncc3c(=O)n2C)C1 [Example 187],< 1000
18,CCn1c(OCc2ccccc2)nn2c(C(C)C)ncc2c1=O [Example 17],< 1000
19,CCn1c(OCC2CCC2)nn2c(C3CCOCC3)ncc2c1=O [Example 86],< 1000
20,CCn1c(NCc2ncccc2C)nn2c(C(C)C)ncc2c1=O [Example 173],1000 to 10000
21,"Cn1c(CN2Cc3ccccc3C2=O)nn2c(C3CCCC3)ncc2c1=O [Example 231, 7-Cyclopentyl-3-methyl-2-[(1-oxo-1,3-dihydro-2H-isoindol-2-yl)methyl]imidazo[5,1-f][1,2,4]triazin-4(3H)-one]",< 1000
22,COCCn1c(OCC2CCC(F)(F)CC2)nn2c(C(C)C)ncc2c1=O [Example 278],< 1000
23,CCn1c(NCc2ccccn2)nn2c(C(C)C)ncc2c1=O [Example 169],< 1000

# Reference: patent US20180044343A1, “BICYCLIC IMIDAZOLO DERIVATIVE” (Sumitomo Dainippon Pharma Co., Ltd., priority 2015, published 2018)
